The source of these data is PubChem BioAssay (NCI).

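Cultured in 96-well plates, cells were exposed to test compound for 48 hours across five concentrations. GI50 is the concentration that inhibits growth by half. At the TGI there is no net growth.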 Some results are limits rather than exact numbers.

Test systems include 786-0 renal; M19-MEL melanoma; SR leukemia; SK-OV-3 ovarian; SNB-78 CNS; CCRF-CEM leukemia; COLO 205 colon; MALME-3M melanoma; CAKI-1 renal; OVCAR-5 ovarian.
Common to all, as to test: DTP human tumour cell line panel, 48 h

The term TGI denotes the concentration at which net growth stops. Low values mean greater sensitivity of the cells, high ones lower sensitivity of the cells. One may read the GI50 as the concentration giving 50% growth inhibition.

On to `CC12CCC(=O)N1c1ccc([N+](=O)[O-])cc1N2` (stereo not given), for which the TGI in the experiment on 786-0 renal, in the experiment with M19-MEL melanoma, in the experiment on SR leukemia, with SK-OV-3 ovarian, in the experiment on SNB-78 CNS and in the experiment on CCRF-CEM leukemia was greater than 100 µM each time. In addition, the TGI in the experiment with COLO 205 colon and in the experiment with MALME-3M melanoma was greater than 100 µM throughout.

Consider `CCC1(O)C(=O)OCc2c1cc1n(c2=O)Cc2cc3c(NC(=O)CN)cccc3nc2-1` (stereo not given), for which the GI50 was 194 nM in the experiment on 786-0 renal; 1380 nM in the experiment on M19-MEL melanoma; 26.2 nM in the experiment on SR leukemia; 0.205 µM in the experiment with CAKI-1 renal; 377 nM in the experiment on SK-OV-3 ovarian; 8.13 µM with SNB-78 CNS. Moreover, the GI50 with OVCAR-5 ovarian is 3.27 µM; with CCRF-CEM leukemia it was 0.0208 µM; with COLO 205 colon, 5 µM; in the experiment on MALME-3M melanoma, 6.94 µM. For the same molecule, the TGI with 786-0 renal was 2.48 µM; in the experiment with M19-MEL melanoma, 14.1 µM; with SR leukemia, 0.183 µM; in the experiment with CAKI-1 renal, 8.37 µM; in the experiment with SK-OV-3 ovarian, 31.3 µM; in the experiment with SNB-78 CNS it was greater than 100 µM. Besides, the TGI worked out at 63.9 µM in the experiment with OVCAR-5 ovarian, 1.43 µM in the experiment on CCRF-CEM leukemia, 46.6 µM in the experiment with COLO 205 colon and 41.1 µM in the experiment with MALME-3M melanoma.

Take `N#Cc1ccc(C=NC23CC4CC(CC(C4)C2)C3)cc1`: the TGI in the experiment with 786-0 renal, in the experiment with M19-MEL melanoma, with SR leukemia, with CAKI-1 renal, in the experiment with SK-OV-3 ovarian and with SNB-78 CNS was greater than 100 µM in each case. Further, the total growth inhibition concentration (TGI) with OVCAR-5 ovarian, in the experiment on CCRF-CEM leukemia, with COLO 205 colon and with MALME-3M melanoma was greater than 100 µM throughout.

`COCCNC(=O)C1C(=O)C(=O)N(CCOC)C1=O` (stereo not given): the TGI in the experiment with 786-0 renal, in the experiment on M19-MEL melanoma, in the experiment on SR leukemia, in the experiment on CAKI-1 renal, in the experiment with SK-OV-3 ovarian and in the experiment with SNB-78 CNS was greater than 100 µM each time. The TGI in the experiment on OVCAR-5 ovarian, with CCRF-CEM leukemia, in the experiment on COLO 205 colon and in the experiment with MALME-3M melanoma was greater than 100 µM throughout.

Consider `COC(=O)[C@@]1(C(C)CC(=O)O)CCCCC1=O` (stereo not given in full), for which the concentration for total growth inhibition (TGI) in the experiment on 786-0 renal, in the experiment on M19-MEL melanoma, with SR leukemia, with CAKI-1 renal, in the experiment on SK-OV-3 ovarian and with SNB-78 CNS was greater than 100 µM throughout. Besides, the TGI with OVCAR-5 ovarian, in the experiment on CCRF-CEM leukemia, with COLO 205 colon and in the experiment with MALME-3M melanoma was greater than 100 µM in each case.

Take `C[CH2][Sn]([CH2]C)([O]C(=O)c1ccccc1OC)[O][Sn]([CH2]C)([CH2]C)[O]C(=O)c1ccccc1OC`: the GI50 with 786-0 renal was greater than 100000 nM; with M19-MEL melanoma, greater than 100000 nM; with SR leukemia, greater than 100000 nM; in the experiment on CAKI-1 renal, 34.6 µM; in the experiment with SK-OV-3 ovarian it was greater than 100000 nM; with SNB-78 CNS it was 63.4 µM. Further, the GI50 in the experiment with OVCAR-5 ovarian is greater than 100 µM; in the experiment on CCRF-CEM leukemia, 41.2 µM; with COLO 205 colon it was greater than 100 µM; in the experiment with MALME-3M melanoma, 27.6 µM. The TGI with 786-0 renal, in the experiment with M19-MEL melanoma, with SR leukemia, with CAKI-1 renal, in the experiment on SK-OV-3 ovarian and with SNB-78 CNS was greater than 100 µM in each case. The TGI in the experiment with OVCAR-5 ovarian, in the experiment on CCRF-CEM leukemia, in the experiment on COLO 205 colon and in the experiment with MALME-3M melanoma was greater than 100 µM each time.

Consider `CCCCC1(C)C=C/C(=C2/C(=O)O/C(=C\C(=O)O)C2=O)O1` (stereo not given), for which the TGI in the experiment with 786-0 renal, with M19-MEL melanoma, with SR leukemia, with SK-OV-3 ovarian, with SNB-78 CNS and in the experiment on OVCAR-5 ovarian was greater than 100 µM in each case. Besides, the total growth inhibition concentration (TGI) in the experiment on CCRF-CEM leukemia, in the experiment with COLO 205 colon and with MALME-3M melanoma was greater than 100 µM each time.

Consider `COC1C(N)C(OC2C(Oc3cccc4c(O)c5c(=O)oc6ccc(C)c7c(=O)oc(c34)c5c67)OC(C)C(O)C2(C)O)OC(C)C1O` (stereo not given), for which the concentration for total growth inhibition (TGI) in the experiment with 786-0 renal came to 0.36 µM; with M19-MEL melanoma it was 0.458 µM; in the experiment on SR leukemia, 8.12 µM; in the experiment with CAKI-1 renal it was 1.45 µM; with SNB-78 CNS, 0.302 µM; in the experiment on OVCAR-5 ovarian, 1.45 µM. In addition, the TGI in the experiment on CCRF-CEM leukemia was found to be 3.66 µM; in the experiment on COLO 205 colon it was 0.383 µM; in the experiment on MALME-3M melanoma it was 0.171 µM.

As for `COc1ccc(CCC2c3cc(OC)c(OC)cc3CCN2C)cc1OC` (stereo not given), the TGI with 786-0 renal, in the experiment on M19-MEL melanoma, with SR leukemia, in the experiment with CAKI-1 renal, in the experiment on SK-OV-3 ovarian and in the experiment on SNB-78 CNS was greater than 100 µM throughout. Moreover, the TGI in the experiment on OVCAR-5 ovarian, in the experiment with CCRF-CEM leukemia, with COLO 205 colon and in the experiment with MALME-3M melanoma was greater than 100 µM in each case.

Take `CC1(C)CC(=O)C(/C(=N/NC(=S)NN)C(=O)Nc2nc3ccc([N+](=O)[O-])cc3s2)C(=O)C1`: the concentration for total growth inhibition (TGI) with 786-0 renal, with M19-MEL melanoma, in the experiment with SR leukemia, in the experiment on CAKI-1 renal, in the experiment on SK-OV-3 ovarian and with SNB-78 CNS was greater than 100 µM throughout. Besides, the concentration for total growth inhibition (TGI) in the experiment on OVCAR-5 ovarian, in the experiment on CCRF-CEM leukemia, in the experiment on COLO 205 colon and in the experiment on MALME-3M melanoma was greater than 100 µM throughout.

As for `CC(C)=CC(=O)N(C)C1C2CN3CCC(O2)C13` (stereo not given), the concentration for total growth inhibition (TGI) with 786-0 renal, in the experiment with M19-MEL melanoma, with CAKI-1 renal, in the experiment with SK-OV-3 ovarian, in the experiment on SNB-78 CNS and in the experiment on OVCAR-5 ovarian was greater than 100 µM throughout. The TGI with CCRF-CEM leukemia, in the experiment with COLO 205 colon and in the experiment on MALME-3M melanoma was greater than 100 µM in each case.

As to `O=C(c1nc2ccccc2[nH]c1=O)C(O)c1ccccc1` (stereo not given), the TGI with 786-0 renal, with M19-MEL melanoma, in the experiment on SR leukemia, with CAKI-1 renal, with SK-OV-3 ovarian and with SNB-78 CNS was greater than 100 µM throughout. The TGI in the experiment with OVCAR-5 ovarian, with CCRF-CEM leukemia, in the experiment on COLO 205 colon and in the experiment on MALME-3M melanoma was greater than 100 µM in each case.

In the case of `N#CC(c1ccccn1)c1nc2ccccc2[nH]1` (stereo not given), the total growth inhibition concentration (TGI) in the experiment with 786-0 renal, in the experiment on M19-MEL melanoma, in the experiment on SR leukemia, with CAKI-1 renal, with SK-OV-3 ovarian and in the experiment on SNB-78 CNS was greater than 100 µM each time. For the same molecule, the total growth inhibition concentration (TGI) in the experiment on OVCAR-5 ovarian, in the experiment with CCRF-CEM leukemia, in the experiment with COLO 205 colon and with MALME-3M melanoma was greater than 100 µM each time.
